The supplement of paper PMC10307832

Experiments:
Assay in all cases: relative viability (nuclei count vs DMSO), 5 days (fraction); higher = more cells survive
17-AAG + Bortezomib = compound: C=CCNC1=C2C[C@@H](C)C[C@H](OC)[C@H](O)[C@@H](C)/C=C(\C)[C@H](OC(N)=O)[C@@H](OC)/C=C\C=C(/C)C(=O)NC(=CC1=O)C2=O [17-AAG] + CC(C)C[C@H](NC(=O)[C@H](Cc1ccccc1)NC(=O)c1cnccn1)B(O)O [Bortezomib] (partner 0.002 µM)
Outline: (§1)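 A single step with final 0.05% Triton X-100, 1% formaldehyde and 1 ug/ml Hoechst fixed the cells and stained nuclei 5 days after treatment. Lung cancer cell lines in 1536-well plates had been treated by pin tool the day after seeding with one drug alone or a fixed anchor-drug dose plus five library-drug doses (not always all listed) in √10 steps, and nuclei were counted on 4× images. Relative viability is the ratio of nuclei in treated wells to nuclei in vehicle wells, taken as the median of duplicate plates.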

17-AAG + Alpelisib = compound: C=CCNC1=C2C[C@@H](C)C[C@H](OC)[C@H](O)[C@@H](C)/C=C(\C)[C@H](OC(N)=O)[C@@H](OC)/C=C\C=C(/C)C(=O)NC(=CC1=O)C2=O [17-AAG] + Cc1nc(NC(=O)N2CCC[C@H]2C(N)=O)sc1-c1ccnc(C(C)(C)C(F)(F)F)c1 [Alpelisib] (partner 2 µM)
Outline: as §1

17-AAG + Dasatinib = compound: C=CCNC1=C2C[C@@H](C)C[C@H](OC)[C@H](O)[C@@H](C)/C=C(\C)[C@H](OC(N)=O)[C@@H](OC)/C=C\C=C(/C)C(=O)NC(=CC1=O)C2=O [17-AAG] + Cc1nc(Nc2ncc(C(=O)Nc3c(C)cccc3Cl)s2)cc(N2CCN(CCO)CC2)n1 [Dasatinib] (partner 0.075 µM)
Outline: as §1

17-AAG + Palbociclib = compound: C=CCNC1=C2C[C@@H](C)C[C@H](OC)[C@H](O)[C@@H](C)/C=C(\C)[C@H](OC(N)=O)[C@@H](OC)/C=C\C=C(/C)C(=O)NC(=CC1=O)C2=O [17-AAG] + CC(=O)c1c(C)c2cnc(Nc3ccc(N4CCNCC4)cn3)nc2n(C2CCCC2)c1=O [Palbociclib] (partner 0.5 µM)
Outline: as §1

Cell Line | relative viability (17-AAG + Bortezomib; first compound 0.00128 µM) | relative viability (17-AAG + Bortezomib; first compound 0.004048 µM) | relative viability (17-AAG + Bortezomib; first compound 0.0128 µM) | relative viability (17-AAG + Bortezomib; first compound 0.04048 µM) | relative viability (17-AAG + Bortezomib; first compound 0.128 µM) | relative viability (17-AAG + Alpelisib; first compound 0.00128 µM) | relative viability (17-AAG + Alpelisib; first compound 0.004048 µM) | relative viability (17-AAG + Alpelisib; first compound 0.0128 µM) | relative viability (17-AAG + Alpelisib; first compound 0.04048 µM) | relative viability (17-AAG + Alpelisib; first compound 0.128 µM) | relative viability (17-AAG + Dasatinib; first compound 0.00128 µM) | relative viability (17-AAG + Dasatinib; first compound 0.004048 µM) | relative viability (17-AAG + Dasatinib; first compound 0.0128 µM) | relative viability (17-AAG + Dasatinib; first compound 0.04048 µM) | relative viability (17-AAG + Dasatinib; first compound 0.128 µM) | relative viability (17-AAG + Palbociclib; first compound 0.00128 µM) | relative viability (17-AAG + Palbociclib; first compound 0.004048 µM) | relative viability (17-AAG + Palbociclib; first compound 0.0128 µM) | relative viability (17-AAG + Palbociclib; first compound 0.04048 µM) | relative viability (17-AAG + Palbociclib; first compound 0.128 µM)
201T | 1.14 | 1.12 | 1.03 | 1.05 | 0.649 | 1.07 | 1.03 | 0.984 | 0.943 | 0.818 | 0.551 | 0.618 | 0.438 | 0.352 | 0.262 | 0.364 | 0.351 | 0.353 | 0.372 | 0.35
PC-14 | 0.915 | 0.822 | 0.808 | 0.12 | 0.101 | 0.939 | 0.726 | 0.662 | 0.106 | 0.0874 | 0.179 | 0.0725 | 0.0375 | 0.0586 | 0.0476 | 0.471 | 0.241 | 0.0966 | 0.0821 | 0.0751
UMC-11 | 0.667 | 0.616 | 0.629 | 0.227 | 0.12 | 1.05 | 0.855 | 0.658 | 0.211 | 0.129 | 0.464 | 0.455 | 0.376 | 0.232 | 0.162 | 0.353 | 0.371 | 0.3 | 0.249 | 0.292
PC-3 [JPC-3] | 0.824 | 0.848 | 0.814 | – | 0.707 | 0.976 | 1.03 | 1.02 | – | 0.955 | 1.02 | 0.966 | 1 | – | 0.815 | 0.575 | 0.57 | 0.551 | 0.463 | 0.528
COR-L23 | 1.12 | 0.948 | 0.946 | 0.408 | 0.0841 | 0.715 | 0.826 | 0.941 | 0.376 | 0.0924 | 0.58 | 0.451 | 0.504 | 0.313 | 0.0763 | 0.278 | 0.338 | 0.336 | 0.198 | 0.0966
HCC-78 | 0.538 | 0.482 | 0.539 | 0.368 | 0.6 | 0.418 | – | 0.446 | 0.326 | 0.294 | 0.358 | 0.508 | 0.403 | 0.359 | 0.193 | 0.47 | 0.464 | 0.475 | 0.442 | 0.424
NCI-H3122 | 0.926 | 0.954 | 0.506 | 0.488 | 0.177 | 0.687 | 0.533 | 0.198 | 0.196 | 0.173 | 0.854 | 0.754 | 0.0689 | 0.0681 | 0.0701 | 0.194 | 0.155 | 0.19 | 0.0911 | 0.117
SW 1573 | 1.23 | 1.02 | 0.687 | 0.225 | 0.117 | 0.817 | 0.716 | 0.648 | 0.158 | 0.109 | 0.699 | 0.461 | 0.135 | 0.136 | 0.0753 | 0.459 | 0.207 | 0.169 | 0.103 | 0.0788
EMC-BAC-2 | 1.15 | 1.11 | 1.13 | 1.01 | 0.209 | 0.836 | 0.761 | 0.754 | 0.813 | 0.381 | 0.365 | 0.411 | 0.28 | 0.258 | 0.169 | 0.544 | 0.525 | 0.521 | 0.462 | 0.4
NCI-H647 | 0.912 | 0.761 | 0.0902 | 0.1 | 0.0699 | 1.29 | 0.605 | 0.0949 | 0.107 | 0.0714 | 0.193 | 0.112 | 0.0468 | 0.107 | 0.0735 | 0.414 | 0.284 | 0.102 | 0.0567 | 0.0782
LCLC-97TM1 | 0.431 | 0.614 | 0.249 | 0.125 | 0.0923 | 0.204 | 0.294 | 0.235 | 0.26 | 0.161 | 0.796 | 0.813 | 0.777 | 0.224 | 0.159 | 0.264 | 0.213 | 0.199 | 0.251 | 0.209
H3255 | 0.864 | 0.722 | 0.46 | 0.237 | 0.205 | 0.672 | 0.716 | 0.498 | 0.26 | 0.154 | 0.427 | 0.345 | 0.374 | 0.204 | 0.207 | 0.306 | 0.292 | 0.299 | 0.247 | 0.26
LXF-289 | 0.99 | 0.994 | 0.815 | 0.478 | 0.108 | 1.07 | 1.03 | 0.882 | 0.647 | 0.118 | 0.234 | 0.183 | 0.0975 | 0.064 | 0.0605 | 0.606 | 0.55 | 0.602 | 0.545 | 0.227
NCI-H2347 | – | 0.995 | 0.871 | 0.447 | 0.371 | 1.12 | 0.961 | 1.1 | 0.565 | 0.417 | 0.308 | 0.248 | 0.216 | 0.176 | 0.118 | 0.45 | 0.446 | 0.397 | 0.317 | 0.322
LC-2-ad | 0.97 | 1.05 | 0.665 | 0.119 | 0.105 | 0.955 | 0.863 | 0.747 | 0.167 | 0.0846 | 0.546 | 0.418 | 0.18 | 0.198 | 0.12 | 0.553 | 0.53 | 0.494 | 0.486 | 0.172
A-427 | 1.01 | 1.05 | 0.965 | 0.921 | 0.625 | 1.05 | 1.15 | 1.12 | 1.1 | 0.995 | 0.698 | 0.709 | 0.692 | 0.538 | 0.156 | 0.554 | 0.506 | 0.54 | 0.354 | 0.291
